From patent publication US6593307B1, “Cyclic-ADP-ribose analogs” (Regents of the University of Minnesota, priority 1999, dated 2003)
Entries after “also recorded” stand apart in the source; their conditions may differ. Read-outs that look alike come from different tables or passages of the source.

Legend:
Live L. pictus eggs = test: Microinjection into live sea urchin eggs (Ca2+ mobilization, cortical reaction)
Description: Live L. pictus eggs were preloaded with the calcium indicator, fluo 3, by microinjection.

CD38 [1] = conditions: 1 μg/ml CD38 at 37° C.
CD38 [2] = test: Stability to hydrolysis by CD38, read out by Ca2+ release
[3] = tested on: cord blood (CB) mononuclear cells (MNC)
Description: (§2) After liquid culture, an appropriate number of MNC or CD34^+-enriched cells was plated in methylcellulose medium supplemented with a mixture of hemopoietic growth factors (Methocult; Stem Cell Technologies, Vancouver, BC, Canada). After 14 days of incubation in a humidified, 5% CO2 atmosphere at 37° C., colonies were scored using an inverted microscope, applying standard criteria for their identification.

[4] = tested on: sea urchin egg homogenates; test: Ca2+ release assay in sea urchin egg homogenates; assay type: biochemical, Strongylocentrotus purpuratus; conditions: for EC50: S. purpuratus egg homogenates, read-out: half-maximal concentration for Ca2+ release (EC50)
Description: The dilutions and all experiments were conducted at 17° C. Free Ca^2+ concentrations were measured by monitoring the fluorescence (490 nm excitation, 535 nm emission) of the indicator using a Perkin Elmer Model 650 spectrofluometer. […] For some experiments a BMG FluoStar 96 well fluorescence plate reader was used. In this case, samples to be tested were added to wells of a 96 well plate in 1.5 μl aliquots. Calcium release was initiated by adding 150 μl of homogenate to each well with a multichannel pipette. Six to eight wells were measured simultaneously. Samples to be tested were diluted in IM buffer containing 10 μM EGTA.

CB MNC [5] = test: Fluorimetric determination of [Ca2+]i in CB MNC (FURA 2); assay type: cell-based, human
Description: Measurements were performed at room temperature in a 2 ml-cuvette under continuous stirring. […] Chem., 273, 8017-8024. The frequency of recording was 1 point/s. All measurements were performed in Ca^2+-free external solutions.

[6] = Stability to heat (boiling water bath), read out by Ca2+ release
Description: Aliquots were then cooled on ice and the ability of the sample to release Ca^2+ determined. Data is average±sd for a representative experiment performed in triplicate.

[7] = general statement, not tested here; cited from earlier work
L. pictus = conditions: cited from earlier work
[8] = tested on: peripheral blood (PB)-derived clonogenic progenitors; test: CFC output of peripheral blood-derived clonogenic progenitors; assay type: cell-based, human; conditions: 100 μM, 24 hours, n=2
Description: (§1) Normal bone marrow (BM) cells were obtained from donors providing marrow for allogeneic transplantation. Leukapheresis samples were obtained from normal donors providing peripheral blood (PB) progenitor cells for allogeneic transplant after a short course of granulocyte colony-stimulating factor. All donors gave informed consent. Mononuclear cells (MNC) from CB, BM and PB were separated by density gradient centrifugation on Ficoll-Hypaque (Sigma). After separation, cells were washed twice in Iscove's Modified Dulbecco's Medium (IMDM) containing 5% fetal calf serum (FCS) and resuspended in IMDM containing 10% FCS, penicillin 100 U/ml, streptomycin 100 μg/ml and glutamine 2 mM (complete medium).

CD34+-enriched MNC = test: CFC growth from CD34+-enriched fractions; assay type: cell-based, human; conditions: 100 μM, 24 hours, n=6
Description: Immunoaffinity purification of CD34^+ cells was used to enrich MNC in colony forming cells (CFC) and early progenitors (Krause, D. […] CD34^+ cell enrichment was performed by positive selection using the miniMACS immunomagnetic separation system (Miltenyi Biotec GmBH, Germany). Briefly, PB- or CB-derived MNC were suspended in phosphate-buffered saline (PBS) containing 0.5% bovine serum albumin and 5 mM EDTA and CD34^+ cells were separated using anti-CD34 antibody (clone: QBEND/10; isotype: mouse IgG1) and colloidal superparamagnetic beads. After labeling, the cell suspension was passed through a column held within a magnetic field causing CD34^+ cells to be retained in the column. Purified CD34^+ cells were then collected following removal of the column from the magnet and washing with buffer.

[9] = tested on: bone marrow (BM)-derived clonogenic progenitors; test: CFC output of bone marrow-derived clonogenic progenitors; assay type: cell-based, human; conditions: 100 μM, 24 hours, n=3
Description: as §1

[10] = tested on: cord blood (CB) mononuclear cells (MNC); test: Colony size (cells per colony) from CB MNC; assay type: cell-based, human; conditions: 100 μM, 24 hours priming
Description: as §2

CB MNC [11] = test: Cytosine arabinoside-susceptibility of CB MNC CFC; assay type: cell-based, human
Description: Thereafter, cells were washed, counted and plated in semisolid medium for assay of CFC at a concentration of 10^4 MNC/plate.

[12] = tested on: specific microsomal binding site for cADPR; conditions: cited from earlier work
[13] = 100 nM in pipette, about 0.7 nM in the egg
[14] = 1 μM in pipette, about 10 nM in the egg
[15] = 10 μM in pipette, ~130 nM in the egg

N=c1c2ncn3c2ccn1C1OC(COP(=O)(O)OP(=O)(O)OCC2OC3C(O)C2O)C(O)C1O (stereo not shown) [3-deaza-cADPR, cyclic 3-deaza-adenosine diphosphoribose]
Ca2+ transient (Live L. pictus eggs; [13]): small
injected eggs with partial cortical reaction (Live L. pictus eggs; [13]): 1 out of 6
full cortical reactions out of the 7 eggs injected (Live L. pictus eggs; [14]): 4
partial cortical reaction out of the 7 eggs injected (Live L. pictus eggs; [14]): 1
Ca2+ transient (Live L. pictus eggs; [15]): large
eggs with full cortical reaction (Live L. pictus eggs; [15]): 5 out of 5
hydrolysis by CD38 (CD38 [1]): did not hydrolyze
resistance to enzymatic hydrolysis (CD38 [2]): resistant
median CFC output ([3]; 1 nM, n=5, control 1,150): 2,050 CFC/ml
median CFC output ([3]; 1 μM, n=5, control 1,150): 2,200 CFC/ml
CFC output compared to untreated cells ([3]; 1, 10, 100 and 1,000 nM, each concentration): significant increase
effect of 1 nM as share of the effect induced by 1 μM ([3]; CFC output): 95%
lag before Ca2+ release at low concentrations [4]: an appreciable lag is seen
desensitization of homogenate to subsequent challenge by the other agonist ([4]; 1 μM cADPR, 500 nM 3-deaza-cADPR): renders the system unresponsive
EC50 [4]: 1 ± 0.4 nM
final concentration able/needed to elicit Ca2+ release ([4]; control traces, FIG. 3): 0.3 nM
[Ca2+]i after 24 hours (CB MNC [5]; 10 nM 3-deaza-cADPR, n=7, basal 20.3±1.8): 96.4 ± 5.0 nM
calcium response of intact cells over 30 min (CB MNC [5]; 100 μM cADPR or 10 nM 3-deaza-cADPR, zero-calcium external solution): same rate and extent
calcium levels following removal of the nucleotide (CB MNC [5]; at least 48 hours after removal): remained unchanged
[Ca2+]i(t=0), fitted parameter (CB MNC [5]; single exponential fit, 10 nM): 21.1 ± 0.6 nM
Δmax[Ca2+]i, fitted maximal calcium change (CB MNC [5]; single exponential fit, 10 nM): 74.0 ± 0.7 nM
τ, time constant of [Ca2+]i increase (CB MNC [5]; single exponential fit, 10 nM): 6.5 h
resistance to heat hydrolysis [6]: resistant
fraction inactivated upon boiling ([6]; boiling for up to two hours, 350 nM): about 15%

N=c1c2ccn3c2ncn1C1OC(COP(=O)(O)OP(=O)(O)OCC2OC3C(O)C2O)C(O)C1O (stereo not shown) [7-deaza-cADPR]
agonist character [4]: partial agonist
EC50 [4]: ~25 nM
Ca2+ release relative to that induced by cADPR or 3-deaza-cADPR ([4]; maximal response, FIG. 4): about 70%
resistance of the N1-glycosidic linkage to hydrolysis [7]: resistant to hydrolysis
relative potency of cADPR and 7-deaza-cADPR (L. pictus): cADPR is more potent than 7-deaza-cADPR

N=c1c2nc(N)n3c2ncn1[C@@H]1O[C@H](COP(=O)(O)OP(=O)(O)OC[C@H]2O[C@@H]3[C@H](O)[C@@H]2O)[C@@H](O)[C@H]1O [8-NH2-cADPR]
mean CFC output ([3]; 10 μM 8-NH2-cADPR plus 10-fold excess cADPR (100 μM), 24 hours, control 2,800): 1,200 CFC/ml
mean CFC output ([3]; 10 μM 8-NH2-cADPR plus 100-fold excess cADPR (1 mM), 24 hours, control 2,600): 2,500 CFC/ml
effect on colony growth ([3]; 10 μM, 24 hours pre-treatment): completely inhibited colony growth
median CFC output ([3]; 10 μM, 24 hours, n=3, untreated 3,400): zero
colony growth after further 24 hours with cADPR (100 μM) ([3]; after 10 μM 8-NH2-cADPR pre-treatment): did not restore colony growth
effect on 3-deaza-cADPR-induced Ca2+ release ([4]; 2.7 nM 3-deaza-cADPR, 60 and 300 nM 8-amino-cADPR): blocks; also recorded: can also inhibit
amount of Ca2+ releasable by calcium ionophore A23187 vs untreated (CB MNC [5]; 10 μM, 24 hours): consistent increase
basal [Ca2+]i after incubation (CB MNC [5]; 10 μM, 24 hours, n=3, from 20±2): 14 ± 1 nM
effect on calcium increase induced by cADPR (CB MNC [5]; 100 μM, 2 hours pre-incubation): completely inhibited
[Ca2+]i following exposure to cADPR (CB MNC [5]; 2 hours pre-incubation with 100 μM 8-NH2-cADPR, then 100 μM cADPR for 4 hours, n=2): 20 nM

Nc1ncnc2c1ncn2[C@@H]1O[C@H](COP(=O)(O)OP(=O)(O)OC[C@H]2OC(O)[C@H](O)[C@@H]2O)[C@@H](O)[C@H]1O (stereo partly shown) [ADPR, ADP-ribose]
median CFC output, PB-derived [8]: 1,460 CFC/ml
median CFC growth from CD34+-enriched fractions (CD34+-enriched MNC): 18,000 CFC/10^6 MNC
range of CFC growth from CD34+-enriched fractions (CD34+-enriched MNC): 360-70,000 CFC/10^6 MNC
Median CFC number per ml ([3]; 100 μM, 24 hours, CB MNC): 2,141 CFC/ml
Range of CFC number per ml ([3]; 100 μM, 24 hours, CB MNC): 600-13,120 CFC/ml
effect on CFC growth compared to untreated cells ([3]; any of the concentrations tested (1-1,000 μM)): No effect
median CFC output, BM-derived [9]: 1,500 CFC/ml
Median number of cells per colony [10]: 11,560
Range of number of cells per colony [10]: 6,200-19,000

Nc1ccn([C@@H]2O[C@H](CO)[C@@H](O)[C@@H]2O)c(=O)n1 [c-ARA, Cytosine arabinoside]
effect on the growth-stimulating effect of cADPR (CB MNC [11]; 1 μM c-ARA, 24 hours): complete inhibition
effect on increased replating efficiency produced by cADPR priming (CB MNC [11]; 1 μM c-ARA, 24 hours pretreatment): did not affect
median colony number (CB MNC [11]; c-ARA pretreated (1 μM, 24 hours), incubated without cADPR, n=8): 21 per 10^4 plated MNC

inositol trisphosphate
competition for the cADPR binding site relative to cADPR [12]: at least a thousand times less effectively than cADPR
